Experimental data as given in patent US9045486B2, “Pyrimidone derivatives and their use in the treatment, amelioration or prevention of a viral disease” (priority 2013, dated 2015).

target: T1, influenza A virus (IAV) PA-Nter fragment (amino acids 1-209) (Influenza A virus, UniProt P31343); test: FRET endonuclease activity assay; format: biochemical; conditions: 0.5 μM PA-Nter, 1.6 μM dual-labelled RNA substrate; IC50 from initial reaction velocities (v0)
T1 construct: PA-Nter fragment (amino acids 1-209); made in house

Point of comparison: `O=C1c2c(O)c(=O)nc(CC3(c4cccc5ccccc45)CCCC3)n2CCN1CC1CC1`, IC50 140 nM. Against it:
- CC(C)N1CCn2c(Cc3ccccc3-c3ccccc3Cl)nc(=O)c(O)c2C1=O — 4.7-fold higher, 657 nM
- O=C1NCCn2c(Cc3ccccc3-c3ccccc3)nc(=O)c(O)c21 — 2.3-fold lower, 60 nM
- CC(C)N1CCn2c(Cc3ccccc3-c3ccccc3)nc(=O)c(O)c2C1=O — within 1.5-fold, 196 nM
- CN1CCn2c(Cc3ccccc3-c3ccccc3Cl)nc(=O)c(O)c2C1=O — within 1.5-fold, 175 nM
- CN1CCn2c(CC3(c4ccccc4)CCCC3)nc(=O)c(O)c2C1=O — within 1.5-fold, 116 nM
- CC(C)N1CCn2c(CC3(c4ccccc4)CCCC3)nc(=O)c(O)c2C1=O — 1.5-fold lower, 93 nM
- CN1CCn2c(CC3(c4ccc(Cl)cc4)CCCC3)nc(=O)c(O)c2C1=O — within 1.5-fold, 160 nM
- CC(C)N1CCn2c(CC3(c4ccc(Cl)cc4)CCCC3)nc(=O)c(O)c2C1=O — 1.8-fold higher, 252 nM
- CC(N1CCn2c(CC3(c4ccc(Cl)cc4)CCCC3)nc(=O)c(O)c2C1=O)C(F)(F)F (stereo not shown) — 2.1-fold higher, 296 nM
- O=C1c2c(O)c(=O)nc(CC3(c4ccc(Cl)cc4)CCCC3)n2CCN1c1ccccc1 — 8.4-fold higher, 1180 nM
- CC(C)N1CCn2c(Cc3cccc4ccccc34)nc(=O)c(O)c2C1=O — 13-fold higher, 1810 nM
- CC(C)N1CCn2c(Cc3cccc(Cl)c3Cl)nc(=O)c(O)c2C1=O — 2.5-fold higher, 350 nM
- CC(C)N1CCn2c(Cc3ccccc3-c3cccc(Cl)c3Cl)nc(=O)c(O)c2C1=O — 2.6-fold higher, 370 nM
- CC(C)N1CCn2c(Cc3ccccc3-c3ccc(Cl)c(Cl)c3)nc(=O)c(O)c2C1=O — 18-fold higher, 2510 nM
- CC(C)N1CCn2c(Cc3ccccc3-c3ccc(Cl)cc3)nc(=O)c(O)c2C1=O — 9.8-fold higher, 1370 nM
- COc1ccc(-c2ccccc2)c(Cc2nc(=O)c(O)c3n2CCN(C(C)C)C3=O)c1 — 3.1-fold higher, 430 nM
- CC(c1ccccc1-c1ccccc1)c1nc(=O)c(O)c2n1CCN(C(C)C)C2=O (stereo not shown) — 12-fold higher, 1700 nM
- CC(C)N1CCn2c(Cc3cscc3-c3ccccc3)nc(=O)c(O)c2C1=O — 9.9-fold higher, 1390 nM
- CC(c1ccccc1)N1CCn2c(CC3(c4ccc(Cl)cc4)CCCC3)nc(=O)c(O)c2C1=O (stereo not shown) — 8.1-fold higher, 1130 nM
- CC(C)N1CCn2c(CC(C)(C)c3ccccc3)nc(=O)c(O)c2C1=O — 1.8-fold higher, 250 nM
- CC(C)N1CCn2c(CC3(c4ccccc4)CCCCC3)nc(=O)c(O)c2C1=O — within 1.5-fold, 120 nM
- CC(C)N1CCn2c(CC3(c4ccc(Cl)c(Cl)c4)CCCC3)nc(=O)c(O)c2C1=O — 4.4-fold higher, 610 nM
- CC(C)N1CCn2c(CC3(c4cccc(Cl)c4)CCCC3)nc(=O)c(O)c2C1=O — 2.3-fold higher, 320 nM
- CC(C)N1CCn2c(CC3(c4ccc5ccccc5c4)CCCC3)nc(=O)c(O)c2C1=O — within 1.5-fold, 110 nM
- CC(C)N1CCn2c(Cc3ccccc3-c3cccc(F)c3F)nc(=O)c(O)c2C1=O — within 1.5-fold, 200 nM
- CC(C)N1CCn2c([C@@H]3CCC[C@@H]3c3ccccc3)nc(=O)c(O)c2C1=O — 3.6-fold higher, 500 nM
- CC(C)N1CCn2c([C@H]3CCC[C@H]3c3ccccc3)nc(=O)c(O)c2C1=O — 1.6-fold higher, 230 nM
- CC(C)N1CCn2c(CC(C)(C)n3ccc4ccccc43)nc(=O)c(O)c2C1=O — 1.7-fold higher, 240 nM
- CC(C)N1CCn2c(Cc3cc(O)ccc3-c3ccccc3)nc(=O)c(O)c2C1=O — within 1.5-fold, 146 nM
- COc1ccc(-c2ccccc2Cc2nc(=O)c(O)c3n2CCN(C(C)C)C3=O)cc1 — within 1.5-fold, 122 nM
- CC(C)N1CCn2c(Cc3ccccc3C3CCCCC3)nc(=O)c(O)c2C1=O — within 1.5-fold, 114 nM
- CC(C)N1CCn2c(Cc3ccccc3-c3ccncc3)nc(=O)c(O)c2C1=O — within 1.5-fold, 94 nM
- CC(C)N1CCn2c(Cc3ccccc3-c3cccc(F)c3)nc(=O)c(O)c2C1=O — 2.7-fold higher, 380 nM
- CC(C)N1CCn2c(Cc3ncccc3-c3ccccc3)nc(=O)c(O)c2C1=O — 2.7-fold higher, 380 nM
- CC(C)N1CCn2c(Cc3ccccc3-c3ccc(F)c(F)c3)nc(=O)c(O)c2C1=O — 7.6-fold higher, 1060 nM
- CC(C)c1ccc(-c2ccccc2Cc2nc(=O)c(O)c3n2CCN(C(C)C)C3=O)cc1 — 5-fold higher, 700 nM
- CC(C)N1CCn2c(Cc3ccccc3-c3ccc(F)cc3)nc(=O)c(O)c2C1=O — 11-fold higher, 1550 nM
- CC(C)N1CCn2c(Cc3ccccc3-c3ccc(C#N)cc3)nc(=O)c(O)c2C1=O — 2.1-fold higher, 300 nM
- CC(C)N1CCn2c(Cc3ccccc3-c3ccc(C(F)(F)F)c(F)c3)nc(=O)c(O)c2C1=O — 2.7-fold higher, 380 nM
- CC(C)N1CCn2c(Cc3ccccc3-c3ccc(C(F)(F)F)cc3)nc(=O)c(O)c2C1=O — 2.3-fold higher, 320 nM
- CC(C)N1CCn2c(Cc3ccccc3-c3ccc(OC(F)(F)F)cc3)nc(=O)c(O)c2C1=O — 3.9-fold higher, 550 nM
- CC(C)N1CCn2c(Cc3ccccc3-c3ccc4c(c3)OCO4)nc(=O)c(O)c2C1=O — 1.6-fold higher, 229 nM
- O=C1c2c(O)c(=O)nc(CC3(c4ccccc4)CCCC3)n2CCN1C1CCCC1 — 3.7-fold higher, 521 nM
- CSc1ccc(-c2ccccc2Cc2nc(=O)c(O)c3n2CCN(C(C)C)C3=O)cc1 — within 1.5-fold, 116 nM
- O=C1c2c(O)c(=O)nc(CC3(c4ccccc4)CCCC3)n2CCN1C1CCC1 — within 1.5-fold, 102 nM
- CC(C)(C)CN1CCn2c(CC3(c4ccccc4)CCCC3)nc(=O)c(O)c2C1=O — within 1.5-fold, 143 nM
- O=C1c2c(O)c(=O)nc(CC3(c4ccccc4)CCCC3)n2CCN1CC1CC1 — within 1.5-fold, 138 nM
- O=C1c2c(O)c(=O)nc(CC3(c4ccccc4)CCCC3)n2CCN1C1COC1 — within 1.5-fold, 134 nM
- O=C1c2c(O)c(=O)nc(CC3(c4ccccc4)CCCC3)n2CCN1C1CC1 — within 1.5-fold, 98 nM
- O=C1c2c(O)c(=O)nc(CC3(c4ccccc4)CCCC3)n2CCN1C1CCOCC1 — 3.3-fold lower, 43 nM
- O=C1c2c(OCc3ccccc3)c(=O)nc(CC3(c4ccccc4)CCCC3)n2CCN1C1CCOCC1 — higher, > 25000 nM
- CC(C)N1CCn2c(CC3(c4ccc(C#N)cc4)CCCC3)nc(=O)c(O)c2C1=O — 3.4-fold lower, 41 nM
- CC(C)N1CCn2c(CC3(c4cc(Cl)ccc4Cl)CCCC3)nc(=O)c(O)c2C1=O — 2.1-fold higher, 295 nM
- CC(C)N1CCn2c(CC3(c4ccc(C(F)(F)F)cc4)CCCC3)nc(=O)c(O)c2C1=O — 1.9-fold higher, 262 nM
- CC(C)N1CCn2c(CC3(c4ccccc4)CCC(F)(F)CC3)nc(=O)c(O)c2C1=O — 1.7-fold lower, 84 nM
- O=C1c2c(O)c(=O)nc(CC3(c4ccccc4)CCCC3)n2CCN1Cc1ccc(F)cc1 — 3-fold higher, 422 nM
- O=C1c2c(O)c(=O)nc(CC3(c4ccc(Cl)cc4)CCCC3)n2CCN1CC1CC1 — within 1.5-fold, 205 nM
- O=C1c2c(OCc3ccccc3)c(=O)nc(CC3(c4ccc(Cl)cc4)CCCC3)n2CCN1CC1CC1 — higher, > 25000 nM
- O=C1c2c(O)c(=O)nc(CC3(c4ccc(Cl)cc4)CCCC3)n2CCN1C1CC1 — 5.2-fold higher, 730 nM
- CN1CCn2c(CC3(c4cccc5ccccc45)CCCC3)nc(=O)c(O)c2C1=O — within 1.5-fold, 110 nM
- O=C1c2c(O)c(=O)nc(CC3(c4ccc(Cl)cc4)CCCC3)n2CCN1C1CCOCC1 — 2.3-fold lower, 60 nM
- O=C1c2c(O)c(=O)nc(CC3(c4cccc5ccccc45)CCCC3)n2CCN1C1CCOCC1 — within 1.5-fold, 110 nM
- O=C1c2c(O)c(=O)nc(CC3(c4cccc5ccccc45)CCCC3)n2CCN1C1CC1 — within 1.5-fold, 104 nM
- O=C1c2c(O)c(=O)nc(CC3(c4cccc5ccccc45)CCCC3)n2CCN1C1COC1 — higher, > 25000 nM
- O=C1c2c(O)c(=O)nc(CC3(c4cccc5ccccc45)CCCC3)n2CCN1Cc1ccccc1 — 4.8-fold higher, 670 nM
- CN1CCn2c(CC3(n4ccc5cccnc54)CCCC3)nc(=O)c(O)c2C1=O — 1.8-fold lower, 80 nM
- CC(C)N1CCn2c(CC3(n4ccc5cccnc54)CCCC3)nc(=O)c(O)c2C1=O — 7-fold lower, 20 nM
- O=C1c2c(O)c(=O)nc(CC3(n4ccc5cccnc54)CCCC3)n2CCN1CC1CC1 — within 1.5-fold, 141 nM
- O=C1c2c(OCc3ccccc3)c(=O)nc(CC3(n4ccc5cccnc54)CCCC3)n2CCN1CC1CC1 — higher, > 25000 nM
- O=C1c2c(O)c(=O)nc(CC3(n4ccc5cccnc54)CCCC3)n2CCN1C1COC1 — within 1.5-fold, 108 nM
- O=C1c2c(O)c(=O)nc(CC3(n4ccc5cccnc54)CCCC3)n2CCN1C1CC1 — 1.5-fold lower, 92 nM
- O=C1c2c(O)c(=O)nc(CC3(n4ccc5cccnc54)CCCC3)n2CCN1C1CCC1 — within 1.5-fold, 173 nM
- CC(C)N1CCn2c(Cc3ccc(Cl)cc3-c3ccc(F)cc3)nc(=O)c(O)c2C1=O — 3.1-fold higher, 436 nM
- CC(C)N1CCn2c(Cc3ccc(Cl)cc3-c3ccc(Cl)cc3)nc(=O)c(O)c2C1=O — 1.9-fold higher, 266 nM
- CC(C)N1CCn2c(Cc3ccc(Cl)cc3-c3cccc(F)c3)nc(=O)c(O)c2C1=O — 2.4-fold lower, 58 nM
- CC(C)N1CCn2c(Cc3ccc(Cl)cc3-c3cccnc3)nc(=O)c(O)c2C1=O — 1.7-fold lower, 81 nM
- CC(C)N1CCn2c(Cc3ccc(Cl)cc3-c3ccncc3)nc(=O)c(O)c2C1=O — within 1.5-fold, 110 nM
- CC(C)N1CCn2c(Cc3ccc(Cl)cc3Br)nc(=O)c(OCc3ccccc3)c2C1=O — higher, > 25000 nM
- CC(C)N1CCn2c(CC3(c4cccc5ccccc45)CCCC3)nc(=O)c(O)c2C1=O — 1.9-fold higher, 270 nM
- CC(C)N1CCn2c(CC3(c4cc(C(F)(F)F)cc(C(F)(F)F)c4)CCCC3)nc(=O)c(O)c2C1=O — 2.3-fold higher, 318 nM
- CC(C)N1CCn2c(CC3(c4cccc(C(F)(F)F)c4)CCCC3)nc(=O)c(O)c2C1=O — 3.3-fold higher, 460 nM
- CC(C)N1CCn2c(-c3ccccn3)nc(=O)c(O)c2C1=O — 14-fold higher, 1890 nM
- O=C1c2c(O)c(=O)nc(CC3(c4ccc(Cl)cc4)CCCC3)n2CCN1Cc1ccccc1 — 7.1-fold higher, 990 nM
- O=C1NCCn2c(CC3(c4ccc(Cl)cc4)CCCC3)nc(=O)c(O)c21 — 9.1-fold higher, 1270 nM
- CC(C)N1CCn2c(CC3(c4ccccn4)CCCC3)nc(=O)c(O)c2C1=O — within 1.5-fold, 97 nM
- CN1CCn2c(CC3(c4ccccn4)CCCC3)nc(=O)c(O)c2C1=O — 2.2-fold lower, 63 nM
- CC(C)N1CCn2c(Cc3c(Cl)cccc3Cl)nc(=O)c(O)c2C1=O [drawing 10] — 2.8-fold higher, 392 nM
- CC(C)N1CCn2c(Cc3c(Cl)cccc3Cl)nc(=O)c(O)c2C1=O [drawing 18] — 2.8-fold higher, 390 nM
- O=C1NCCn2c(CC3(c4cccc5ccccc45)CCCC3)nc(=O)c(O)c21 [drawing 712] — within 1.5-fold, 162 nM
- O=C1NCCn2c(CC3(c4cccc5ccccc45)CCCC3)nc(=O)c(O)c21 [drawing 722] — within 1.5-fold, 160 nM
